Non-standard residues stand in square brackets, D forms with d. Residues, ends and D or L forms follow the SMILES beside them. *: point of attachment. Hyp = O=C(O)[C@@H]1C[C@@H](O)CN1; Abu = CC[C@H](N)C(=O)O; Bz = O=C(c1ccccc1)*
Target: T1, General amino-acid permease GAP1 (Saccharomyces cerevisiae) (UniProt P19145)
T1 sequence (whole entry): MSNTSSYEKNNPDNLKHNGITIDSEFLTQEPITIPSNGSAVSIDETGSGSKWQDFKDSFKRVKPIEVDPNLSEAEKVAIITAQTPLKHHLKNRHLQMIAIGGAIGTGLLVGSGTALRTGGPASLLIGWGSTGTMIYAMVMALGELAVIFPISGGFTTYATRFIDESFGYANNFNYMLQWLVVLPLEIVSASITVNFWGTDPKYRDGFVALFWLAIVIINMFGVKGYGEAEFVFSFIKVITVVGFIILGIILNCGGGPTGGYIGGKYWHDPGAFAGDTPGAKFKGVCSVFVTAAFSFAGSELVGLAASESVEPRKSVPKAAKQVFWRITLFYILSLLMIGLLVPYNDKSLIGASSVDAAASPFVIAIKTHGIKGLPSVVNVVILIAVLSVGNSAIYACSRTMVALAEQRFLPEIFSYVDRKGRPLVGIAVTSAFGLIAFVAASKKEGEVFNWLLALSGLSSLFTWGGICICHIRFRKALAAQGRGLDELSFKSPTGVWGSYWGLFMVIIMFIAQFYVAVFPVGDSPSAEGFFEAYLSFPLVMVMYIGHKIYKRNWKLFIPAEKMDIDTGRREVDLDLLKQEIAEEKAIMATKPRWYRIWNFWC
Conditions: sigma1278b, at 5 mM
Description: Inhibition of nitrogen-starved wild type sigma1278b yeast Gap1-mediated amino acid uptake at 5 mM after 60 secs relative to L-citrulline
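Note: amino acid uptake through Gap1 in nitrogen-starved wild-type yeast cells, measured after 60 s and expressed relative to L-citrulline.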

Row | SMILES | inhibition [%]
1 | CSCC[C@H](N)C(=O)N[C@@H](CCCNC(=N)N)C(=O)N[C@@H](Cc1ccccc1)C(=O)O (H-Met-Arg-Phe-OH) | 15
2 | NC(=O)[C@@H](N)Cc1c[nH]c2ccccc12 | < 15
3 | O=C(O)CNC(=O)CNC(=O)c1ccccc1 (Bz-Gly-Gly-OH) | < 15
4 | NC(=O)[C@@H]1CCCN1 | < 15
5 | C[C@H](N)C(=O)N[C@@H](Cc1cnc[nH]1)C(=O)O (H-Ala-His-OH) | > 30
6 | CSCC[C@H](NC(=O)[C@H](Cc1ccc(O)cc1)NC(=O)[C@@H](N)CC(=O)O)C(=O)O (H-Asp-Tyr-Met-OH) | < 15
7 | COC(=O)[C@@H](N)Cc1c[nH]c2ccccc12 | < 15
8 | N[C@@H](CO)C(=O)NCC(=O)O (H-Ser-Gly-OH) | < 15
9 | N=C(N)NCCC[C@H](NC(=O)[C@@H](N)Cc1ccccc1)C(=O)O (H-Phe-Arg-OH) | < 15
10 | COC(=O)CC[C@H](N)C(=O)OC | < 15
11 | CCCC[C@H](NC(=O)OC(C)(C)C)C(=O)O | < 15
12 | N[C@@H](CO)Cc1c[nH]c2ccccc12 | < 15
13 | COC(=O)[C@@H](N)CCSC | < 15
14 | CSCC[C@H](NC(=O)[C@@H](N)Cc1ccc(O)cc1)C(=O)O (H-Tyr-Met-OH) | < 15
15 | NCCC(N)=O | < 15
16 | N[C@@H](Cc1cnc[nH]1)C(=O)NCCS(=O)(=O)O | < 15
17 | COC(=O)[C@@H](N)C(C)C | < 15
18 | CC(C)(C)OC(=O)N[C@@H](CCCNC(=N)N)C(=O)O | < 15
19 | NCC(=O)N[C@@H](Cc1ccccc1)C(N)=O (H-Gly-Phe-NH2) | 15
20 | NCC(=O)NCC(N)=O | < 15
21 | N[C@@H](Cc1cnc[nH]1)C(=O)NCC(=O)NCC(=O)O (H-His-Gly-Gly-OH) | < 15

Row | SMILES | inhibition [%]
22 | NCC(=O)NCCC(=O)NCCS(=O)(=O)O | < 15
23 | CN[C@@H](Cc1cnc[nH]1)C(=O)O | < 15
24 | O=C(O)C[C@H](NC(=O)OCc1ccccc1)C(=O)O | < 15
25 | CSCC[C@H](NC(=O)CN)C(=O)O | < 15
26 | COC(=O)[C@H](N)Cc1cnc[nH]1 | < 15
27 | C[C@H](N)C(=O)N[C@@H](Cc1c[nH]c2ccccc12)C(=O)O (H-Ala-Trp-OH) | > 30
28 | NCC(=O)NCCCC(=O)O | < 15
29 | CC[C@H](C)[C@H](NC(=O)OCc1ccccc1)C(=O)O | 15
30 | N[C@@H](CO)C(=O)NCC(=O)NCC(=O)O (H-Ser-Gly-Gly-OH) | < 15
31 | N[C@@H](Cc1c[nH]cn1)C(=O)N[C@@H](Cc1c[nH]cn1)C(=O)O | 15
32 | COC(=O)[C@@H](N)[C@@H](C)O | < 15
33 | C[C@@H](CC(=O)O)NC(=O)OC(C)(C)C | < 15
34 | NCC(=O)NCC(=O)NCC(=O)O | < 15
35 | CSCC[C@H](NC(=O)[C@@H](N)Cc1ccccc1)C(=O)O (H-Phe-Met-OH) | < 15
36 | NC(=O)C(N)Cc1c[nH]c2ccccc12 (racemic) | < 15
37 | O=C(O)[C@@H]1CNCCN1 | < 15
38 | COC(=O)[C@@H](N)CCCCN | < 15
39 | CC(=O)N[C@@H](Cc1c[nH]c2ccccc12)C(=O)O | < 15
40 | CC(C)(C)OC(=O)N[C@@H](CCCCN)C(=O)O | < 15
41 | N[C@@H](Cc1cnc[nH]1)C(=O)N[C@@H](Cc1ccccc1)C(=O)O (H-His-Phe-OH) | < 15
42 | NCC(=O)NCC(=O)N[C@@H](CO)C(=O)O | < 15

Second part, the compound after the results:

Row | inhibition [%] | SMILES
43 | < 15 | CC(C)C[C@H](NC(=O)[C@@H](N)CC(C)C)C(=O)N[C@H](C(=O)O)C(C)C (H-Leu-Leu-Val-OH)
44 | < 15 | CC(C)C[C@H](NC(=O)CNC(=O)CN)C(=O)O
45 | > 30 | CC(C)C[C@H](N)C(=O)N[C@@H](Cc1cnc[nH]1)C(=O)O (H-Leu-His-OH)
46 | < 15 | CC(C)C[C@@H](NC(=O)CNC(=O)CN)C(=O)O
47 | < 15 | CSCC[C@H](N)C(=O)N[C@@H](CCC(=O)O)C(=O)O (H-Met-Glu-OH)
48 | > 30 | CC(C)CC(N)C(=O)NC(CC(C)C)C(=O)O (racemic)
49 | < 15 | CSCC[C@H](NC(=O)[C@@H](N)CCSC)C(=O)N[C@@H](C)C(=O)O (H-Met-Met-Ala-OH)
50 | < 15 | CC[C@H](C)[C@H](NC(=O)CNC(=O)CN)C(=O)O (H-Gly-Gly-Ile-OH)
51 | 15 | CN[C@@H](CC(C)C)C(=O)N[C@@H](CC(C)C)C(=O)O
52 | < 15 | C[C@H](NC(=O)[C@H](Cc1cnc[nH]1)NC(=O)CN)C(=O)O (H-Gly-His-Ala-OH)
53 | < 15 | CC(C)C[C@H](NC(=O)[C@@H](N)CC(C)C)C(=O)N1CCC[C@H]1C(=O)O (H-Leu-Leu-Pro-OH)
54 | < 15 | C[C@H](N)C(=O)N[C@H](CCC(=O)O)C(N)=O (H-Ala-[dE]-NH2)
55 | < 15 | NCC(=O)N[C@@H](CC(N)=O)C(=O)O (H-Gly-Asn-OH)
56 | 15 | CC(C)[C@H](N)C(=O)N[C@H](C(=O)O)C(C)C (H-Val-Val-OH)
57 | 15 | CC[C@H](C)[C@H](NC(=O)[C@H](C)N)C(=O)O (H-Ala-Ile-OH)
58 | < 15 | CC(C)C[C@H](NC(=O)[C@@H](N)CCC(=O)O)C(=O)O (H-Glu-Leu-OH)
59 | < 15 | CC(C)C[C@H](NC(=O)[C@H](Cc1cnc[nH]1)NC(=O)CN)C(N)=O (H-Gly-His-Leu-NH2)
60 | < 15 | O=C(O)[C@@H]1CCCN1C(=O)[C@@H]1C[C@@H](O)CN1C(=O)[C@@H]1CCCN1 (H-Pro-[Hyp]-Pro-OH)

Row | inhibition [%] | SMILES
61 | < 15 | CC(C)[C@H](NC(=O)CNC(=O)CN)C(=O)O (H-Gly-Gly-Val-OH)
62 | < 15 | CC(C)C[C@H](NC(=O)[C@@H]1C[C@@H](O)CN1)C(=O)O (H-[Hyp]-Leu-OH)
63 | < 15 | CC(C)C[C@H](N)C(=O)N[C@@H](CC(N)=O)C(=O)O (H-Leu-Asn-OH)
64 | < 15 | CC(C)C[C@H](NC(=O)CN)C(=O)N1C[C@H](O)C[C@H]1C(=O)O (H-Gly-Leu-[Hyp]-OH)
65 | < 15 | CC(C)C[C@H](NC(=O)[C@@H](N)CC(C)C)C(=O)N[C@@H](Cc1cnc[nH]1)C(=O)O (H-Leu-Leu-His-OH)
66 | < 15 | CSCC[C@H](N)C(=O)N[C@@H](CC(=O)O)C(=O)O (H-Met-Asp-OH)
67 | < 15 | CC[C@H](C)[C@H](N)C(=O)N[C@H](C(=O)O)[C@@H](C)CC (H-Ile-Ile-OH)
68 | < 15 | CC(C)C(NC(=O)CN)C(=O)O (stereo in doubt)
69 | < 15 | NC(=O)[C@H](CCC(=O)O)NC(=O)[C@@H]1CCCN1 (H-Pro-Glu-NH2)
70 | < 15 | CC[C@H](N)C(=O)N[C@@H](CC(C)C)C(=O)O (H-[Abu]-Leu-OH)
71 | < 15 | N=C(N)NCCC[C@H](NC(=O)[C@@H](N)CC(=O)O)C(=O)O (H-Asp-Arg-OH)
72 | < 15 | CC(C)(C)OC(=O)N[C@@H](CCC(=O)O)C(=O)O
73 | < 15 | N[C@@H](Cc1c[nH]cn1)C(=O)N[C@@H](CO)C(=O)O (H-His-Ser-OH)
74 | < 15 | CC(C)C[C@H](N)C(=O)N[C@H](C(=O)O)C(C)C (H-Leu-Val-OH)
75 | < 15 | CC(C)C[C@@H](N)C(=O)NCC(=O)O (H-[dL]-Gly-OH)
76 | < 15 | C[C@H](N)C(=O)N[C@@H](CCC(=O)O)C(N)=O (H-Ala-Glu-NH2)
77 | < 15 | CC(C)C[C@@H](NC(=O)CN)C(=O)O
